Experimental data reported in PubChem BioAssay (NCI).
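Step 1: Grow cells in 96-well plates. Step 2: Expose to compound for 48 hours at 5 concentrations. Step 3: Interpolate endpoints linearly; if unreached, use highest concentration. GI50 is the concentration that inhibits growth by half. TGI: concentration producing complete growth inhibition.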

What was measured:
Test in all cases: growth of human tumour cells (NCI), 48 h
[1] = tested on: CAKI-1 renal
[2] = tested on: HCC-2998 colon
[3] = tested on: HL-60(TB) leukemia
[4] = tested on: HS 578T breast
[5] = tested on: MALME-3M melanoma
[6] = tested on: MDA-MB-231 breast
[7] = tested on: MOLT-4 leukemia
[8] = tested on: NCI-H23 lung
[9] = tested on: SK-MEL-2 melanoma
[10] = tested on: SNB-75 CNS

| Structure (SMILES) | GI50 [1] [µM] | TGI [1] [µM] | GI50 [2] [µM] | TGI [2] [µM] | GI50 [3] [µM] | TGI [3] [µM] | GI50 [4] [µM] | TGI [4] [µM] | GI50 [5] [µM] | TGI [5] [µM] | GI50 [6] [µM] | TGI [6] [µM] | GI50 [7] [µM] | TGI [7] [µM] | GI50 [8] [µM] | TGI [8] [µM] | GI50 [9] [µM] | TGI [9] [µM] | GI50 [10] [µM] | TGI [10] [µM] |
| --- | --- | --- | --- | --- | --- | --- | --- | --- | --- | --- | --- | --- | --- | --- | --- | --- | --- | --- | --- | --- |
| CCN(CC)c1ccc(-c2cc(-c3cc(OC)c(OC)c(OC)c3)nc(N3CCC(O)CC3)c2C#N)cc1 | 0.0334 | 0.708 | 0.374 | 2.13 | 0.497 | 2.33 | 3.94 | > 100 | 0.303 | 1.18 | 0.214 | 1.77 | 0.621 | 5.17 | 0.87 | 4.68 | 0.289 | 0.889 | 0.321 | 3.04 |
| Cc1ccc(Cl)c(NS(=O)(=O)c2ccc(-c3cnc(C4CC4)o3)cc2)c1 | 0.0531 | 10.1 | 0.233 | 14.6 | 0.0451 | – | 0.0729 | > 69.6 | 11 | 49.7 | 0.651 | > 100 | 0.166 | > 48.3 | 0.365 | 62.8 | 0.412 | 50 | 0.0232 | 0.164 |
| C=C1C(=O)O[C@H]2[C@H]1CC/C(COC(=O)/C=C\C(=O)NCc1ccc(Cn3c(=O)sn(CCI)c3=O)cc1)=C\CC[C@@]1(C)O[C@@H]21 | 1.66 | 3.03 | 13.9 | 27.8 | 1.59 | 5.41 | 14 | 73.6 | 1.85 | 3.63 | 2.52 | 6.68 | 2.24 | 6.32 | 3.34 | 11.8 | 11.1 | 23.4 | 4.24 | 18.5 |
| Cn1c(=O)c(Oc2ccc(F)cc2F)cc2cnc(N[C@@H]3CCOC3)nc21 | > 25 | > 25 | > 25 | > 25 | > 25 | > 25 | > 25 | > 25 | > 25 | > 25 | > 25 | > 25 | > 25 | > 25 | > 25 | > 25 | > 25 | > 25 | > 25 | > 25 |
| CCC(=O)N1C/C(=C/c2ccc(Br)cc2)C(=O)/C(=C/c2ccc(Br)cc2)C1 | 1.21 | – | 0.802 | 2.09 | 1.86 | 5.63 | 0.644 | 4.12 | 1.69 | 3.63 | 0.76 | 2.36 | 1.06 | 5.69 | 1.31 | 3.46 | 1.93 | 4 | 2.34 | 9.71 |
| Cn1cc(C2=C(c3cn(CCCN)c4ccccc34)C(=O)NC2=O)c2ccccc21 | 4.94 | > 15.9 | 5.84 | 16.2 | 5.04 | 11.6 | 3.91 | 16.8 | 5.66 | 10.6 | 6.49 | 16.7 | 6.06 | 18.5 | 5.17 | 14.2 | 3.04 | 7.07 | 0.998 | 5.35 |
| O=C(Nc1cc(F)c(F)cc1C(=O)O)c1ccc(-n2ccnc2)nn1 | > 100 | > 100 | > 100 | > 100 | 38.9 | > 100 | > 100 | > 100 | > 100 | > 100 | > 100 | > 100 | > 100 | > 100 | > 100 | > 100 | > 100 | > 100 | > 100 | > 100 |
| O=C1Cc2cc(CCn3cncn3)c(Cl)cc2N1 | 8.33 | > 100 | > 100 | > 100 | > 100 | > 100 | 0.72 | > 100 | > 100 | > 100 | 4.66 | > 100 | > 100 | > 100 | > 100 | > 100 | 12.4 | > 100 | 13.2 | > 100 |
| CCCCCCCCCCNCCSS(=O)(=O)O | 14.5 | 33.3 | 1.73 | 3.19 | 1.76 | 3.74 | 1.67 | 3.6 | 5.83 | 19.6 | 1.77 | 3.69 | 2.06 | 4.92 | 1.9 | 4.49 | 2.4 | 6.63 | 2.23 | 4.22 |
| OC1CCCC2CCC[N-]C12.OC1CCCC2CCC[N-]C12.[O]=[V][OH] (stereo not drawn) | 21.9 | 85.3 | 12.7 | > 100 | 2.61 | 8.4 | 21.2 | > 100 | 5.03 | > 100 | 3.55 | 16.5 | 1.23 | 10.6 | 7.22 | 52.6 | 9.96 | 45 | 32.8 | > 100 |
